According to paper PMC10747602, “Dose Response, Dosimetric, and Metabolic Evaluations of Replacement PFAS Perfluoro-(2,5,8-trimethyl-3,6,9-trioxadodecanoic) Acid (HFPO-TeA)” (Toxics, 2023):
Values joined by “and” are separate entries in the source; they are usually repeats but may differ in a detail not shown here. Equal entries are not always repeated.

How the values were obtained:
rat hepatocytes = assay: Hepatocyte metabolic stability (clearance) assay, rat hepatocytes; conditions: for Negative Control Data, Heat Treated (HT), 15 min / Negative Control Data, Heat Treated (HT), 240 min: heat treated rat hepatocytes; for Negative Control Data, Heat Treated (HT), 15 min / Negative Control Data, Heat Treated (HT), 240 min / Negative Control Data, No cells (NC), 15 min / Negative Control Data, No cells (NC), 240 min / Ln Concentration, 0 min / Ln Concentration, 15 min / Ln Concentration, 30 min / Ln Concentration, 60 min / Ln Concentration, 120 min / Ln Concentration, 240 min / Linear Regression Best-Fit Slope (Ln concentration vs time): 1000 nM; for Negative Control Data, Heat Treated (HT), 15 min / Negative Control Data, Heat Treated (HT), 240 min / Negative Control Data, No cells (NC), 15 min / Negative Control Data, No cells (NC), 240 min: Ln concentration; for Negative Control Data, Heat Treated (HT), 15 min / Negative Control Data, Heat Treated (HT), 240 min / Negative Control Data, No cells (NC), 15 min / Negative Control Data, No cells (NC), 240 min / Ln Concentration, 0 min / Ln Concentration, 15 min / Ln Concentration, 30 min / Ln Concentration, 60 min / Ln Concentration, 120 min / Ln Concentration, 240 min: Rep 1-3; for Clin vitro: rat hepatocytes, 1 µM; for Ln Concentration, 0 min / Ln Concentration, 15 min / Ln Concentration, 30 min / Ln Concentration, 60 min / Ln Concentration, 120 min / Ln Concentration, 240 min / Linear Regression Best-Fit Slope (Ln concentration vs time): suspended rat hepatocytes; for Linear Regression Best-Fit Slope (Ln concentration vs time): time in min
Experimental: (§1) Information on the chemicals and materials used in the hepatocyte metabolic work can be found in Supplementary Text S9 and Table S3. In vitro evaluations of hepatocyte metabolic stability were performed in human and rat hepatocytes, as previously described. Briefly, pooled, cryopreserved hepatocyte suspensions were thawed, assessed for viability, and then diluted in William’s medium E containing dexamethasone and cell maintenance cocktail B to achieve a cell density of 50,000 cells/100 µL. The assay was started by adding hepatocyte suspensions to wells of 96-well polypropylene plates containing an equal volume of media with 2 µM of analyte (final assay concentration: 1 µM). Plates were placed in a 37 °C cell culture incubator (5% CO2) on a shaker set to 200 rpm. Time points assessed were T0, T15, T30, T60, T120, and T240 min. At each time point, the plates were removed from the shaker and the incubates were crashed with an equal volume of ice-cold ACN containing 1.2% FA and 16 ng/mL of ^13C3 -HFPO-DA. After chilling and centrifugation at 4122× g, the supernatants were transferred to new collection plates and stored at −70 °C until analysis for the parent compound on the Waters instrumentation described below. Immediately prior to analysis, samples were thawed, vortexed, and centrifuged at 4200× g, and then diluted 1:4 in 95:5 H2O/ACN with 2.5 mM of ammonium acetate. Negative controls, including no cell controls and metabolically inactivated hepatocytes, were run concurrently to assess the chemical stability over the time course.
(§2) Intrinsic clearance (Clint; hepatic clearance) calculations are detailed in Supplementary Text S9 [57].
(§3) Targeted, quantitative analysis of in vitro hepatocyte metabolic stability and plasma protein binding assay samples was conducted on a Waters Xevo-TQS micro mass spectrometer (Waters, Milford, MA, USA) ultra-high-performance liquid chromatography tandem mass spectrometry system (UPLC-MS/MS), modified with a PFAS analysis kit. Samples were analyzed in negative ion mode with UniSpray ionization. A CORTECS T3 column (Waters CORTECS, 3 × 100 mm, particle size 2.7 µm) was used for chromatographic separation with a flow rate of 0.6 mL/min and a temperature of 55 °C. Gradient elution was used with eluent A (95:5 H2O/ACN) and eluent B (95:5 ACN/H2O) with 2.5 mM of ammonium acetate. The gradient is available in Table S11. Additional details for MS parameters are found in Table S12 and monitored transitions are found in Table S13.
(§4) Table S2: Data processing parameters used with Sciex MarkerView 1.3.1.
(§5) Support ing Text S9: Hepatocyte Metabolic Stability Assay Materials, Chemicals, and Calculations
(§6) Pooled human and rat cryopreserved primary hepatocyte suspensions were both obtained from
(§7) BioIVT, a US Food and Drug Administration-licensed and inspected donor center, and produced using
(§8) non-transplantable tissue.
(§9) William’s E media, dexamet hasone (98% pure), and cell maintenance cocktail B were obtained from
(§10) Thermo Fisher Scientific (Waltham, MA, USA), the OptiThaw hepatocyte kit from Sekisui/Xenotech
(§11) (Tokyo, Japan), and the trypan blue s (Sekisui/ Xenotech, Tokyo, Japan) and the trypan blue solution from […]

human hepatocytes = assay: Hepatocyte metabolic stability (clearance) assay, human hepatocytes; conditions: for Negative Control Data, No cells (NC), Ln Concentration / Negative Control Data, Heat Treated (HT), Ln Concentration / Ln Concentration / Linear Regression Best-Fit Slope (ln concentration vs time): 1000 nM; for Negative Control Data, No cells (NC), Ln Concentration / Negative Control Data, Heat Treated (HT), Ln Concentration / Ln Concentration: Rep 1-3; for Clin vitro / Negative Control Data, Heat Treated (HT), Ln Concentration / Ln Concentration / Linear Regression Best-Fit Slope (ln concentration vs time): human hepatocytes; for Clin vitro: 1 µM; for Linear Regression Best-Fit Slope (ln concentration vs time): time in min
Experimental: as §1, §2, §3, §4, §5, §6, §7, §8, §9, §10, §11

[1] = In vitro-in vivo extrapolation (IVIVE) to estimate Css, rat; conditions: for Css / Css (steady-state concentration, plasma): IVIVE, BW 0.25 kg; for Css: ID 0.042 mg/kg/hr; for Css (steady-state concentration, plasma): intake dosage 1 mg/kg/day; for fraction unbound at 300 min: Sprague Dawley, blood, fub=fup/(1-hemocrit ref value), hematocrit 0.439; for Clint: scaled (HPGL 117, Vl 9.5 g)
Experimental: Fraction unbound (fu) in plasma (fup) and percent stability calculations are detailed in Supplementary Text S10. Hepatic clearance, the fu in blood (fub) (fu in plasma adjusted for blood:plasma partitioning), and renal clearance were used to derive the steady-state concentration (Css) of each compound that will be used for in vitro–in vivo extrapolation (IVIVE). Renal clearance was calculated using the glomerular filtration rate (a species-dependent constant) and the fub. The Css calculation is detailed in Supplementary Text S11.
Linear regression analysis in conjunction […]
cells in the Clint equation. […]
concentration by the T300 min concentration (Equation E). Chemical stability in plasma was assessed […]
(F) Percent Stability = T300minutesT60minutes∗100 […]
blood (fub) of the parent compound. The Clhepatic calculation is shown in the second part of the denominator of Equation G; it is the product of the species dependent liver blood flow constant, the fub of the parent compound, and the experimentally derived intrins ic clearance (s hown in Equation D) divided by the sum these three values. All values used in Equation G are for first order conditions of metabolism in the liver. All calculations, scalars, and species dependent values used to conduct the Css calculation to facilitate in vitro-in vivo extrapolation (IVIVE) are provided Table S19 within the Excel worksheet, the tab […]
Based on the principle of reverse dosimetry, the Css values derived from IVIVE will be u sed as conversion factors to generate AEDs according to Equation H. In this equation, the AED is linearly related to the in vitro concentration and inversely related to the Css. It is only valid for first-order metabolism that is expected at ambient exposure levels.
(H) AED ൮ mgkg൲ = in vitro concentration (µM )

| SMILES | Negative Control Data, Heat Treated (HT), 15 min (rat hepatocytes) | Negative Control Data, Heat Treated (HT), 240 min (rat hepatocytes) | Negative Control Data, No cells (NC), 15 min (rat hepatocytes) | Negative Control Data, No cells (NC), 240 min (rat hepatocytes) | Clin vitro (rat hepatocytes) [µL/min/106 cells] | Ln Concentration, 0 min (rat hepatocytes) | Ln Concentration, 15 min (rat hepatocytes) | Ln Concentration, 30 min (rat hepatocytes) | Ln Concentration, 60 min (rat hepatocytes) | Ln Concentration, 120 min (rat hepatocytes) | Ln Concentration, 240 min (rat hepatocytes) | Linear Regression Best-Fit Slope (Ln concentration vs time) (rat hepatocytes) | Negative Control Data, No cells (NC), Ln Concentration (human hepatocytes; 15 min) | Negative Control Data, No cells (NC), Ln Concentration (human hepatocytes; 240 min) | Clin vitro (human hepatocytes) [µL/min/106 cells] | Negative Control Data, Heat Treated (HT), Ln Concentration (human hepatocytes; 15 min) | Negative Control Data, Heat Treated (HT), Ln Concentration (human hepatocytes; 240 min) | Ln Concentration (human hepatocytes; time 0 min) | Ln Concentration (human hepatocytes; time 15 min) | Ln Concentration (human hepatocytes; time 30 min) | further results |
| --- | --- | --- | --- | --- | --- | --- | --- | --- | --- | --- | --- | --- | --- | --- | --- | --- | --- | --- | --- | --- | --- |
| O=C(O)C(F)(OC(F)(F)C(F)(OC(F)(F)C(F)(F)C(F)(F)F)C(F)(F)F)C(F)(F)F (stereo not drawn) [HFPO-TA, perfluoro-(2,5-dimethyl-3,6-dioxanonanoic) acid] | 4.1725 and 4.8897 and 5.4522 | 4.9004 and 4.9391 and 4.9107 | 4.1725 and 4.8897 and 5.4522 | 3.9230 and 4.2019 and 3.8754 | 0 | 4.5979 and 4.6454 and 4.5374 | 4.8189 and 4.7145 and 4.8521 | 4.7856 and 4.6050 and 4.6111 | 4.8438 and 4.7495 and 4.8027 | 4.6843 and 4.6317 and 4.5468 | 4.7393 and 4.9247 and 4.8505 | 0.0003164 | 4.3597 and 5.0085 and 5.1884 | 3.9371 and 3.9316 and 3.8367 | 0 | 4.3597 and 5.0085 and 5.1884 | 4.9004 and 4.9391 and 4.9107 | 3.4977 and 3.5184 and 3.3762 | 4.0516 and 4.0675 and 3.8232 | 3.7647 and 3.6457 and 3.2925 | Ln Concentration (human hepatocytes; time 60 min): 4.1190 and 4.0115 and 3.2249; Ln Concentration (human hepatocytes; time 120 min): 4.2452 and 3.9281 and 3.6055; Ln Concentration (human hepatocytes; time 240 min): 4.5149 and 4.7648 and 4.7557; Linear Regression Best-Fit Slope (ln concentration vs time) (human hepatocytes): 0.000858; Clhep (hepatic clearance) [1]: 0 L/h; Css [1]: 40600 ng/mL; Css (steady-state concentration, plasma) [1]: 81.84 µM and 81.8399 µM; fraction unbound at 300 min [1]: 0.0032; Clint [1]: 0 µL/min |
| O=C(O)C(F)(OC(F)(F)C(F)(F)C(F)(F)F)C(F)(F)F (stereo not drawn) [HFPO-DA, perfluoro-2-methyl-3-oxahexanoic acid] | 4.4280 and 4.9483 and 5.2322 | 4.4378 and 4.5247 and 4.4650 | 4.4280 and 4.9483 and 5.2322 | 4.5318 and 4.4615 and 4.4489 | 0 | 4.5114 and 4.4660 and 4.4552 | 4.5017 and 4.4578 and 4.5341 | 4.4026 and 4.3249 and 4.4576 | 4.2774 and 4.4540 and 4.5417 | 4.3832 and 4.5273 and 4.3707 | 4.5604 and 4.5454 and 4.5567 | 0.0002303 | 4.4067 and 4.8800 and 5.2467 | 4.0348 and 4.0907 and 4.1657 | 0 | 4.4067 and 4.8800 and 5.2467 | 4.6325 and 4.7203 and 4.8737 | 4.0945 and 4.2370 and 4.1735 | 4.1372 and 3.3218 and 3.8504 | 4.2468 and 4.1368 and 4.2711 | Ln Concentration (human hepatocytes; time 60 min): 4.1233 and 4.2750 and 4.2651; Ln Concentration (human hepatocytes; time 120 min): 4.3345 and 4.3751 and 4.3328; Ln Concentration (human hepatocytes; time 240 min): 4.9658 and 4.7177 and 4.8428; Linear Regression Best-Fit Slope (ln concentration vs time) (human hepatocytes): 0.0006364; Clhep (hepatic clearance) [1]: 0 L/h; Css [1]: 2400 ng/mL; Css (steady-state concentration, plasma) [1]: 7.27 µM and 7.2674 µM; fraction unbound at 300 min [1]: 0.0547; Clint [1]: 0 µL/min |
| O=C(O)C(F)(OC(F)(F)C(F)(OC(F)(F)C(F)(OC(F)(F)C(F)(F)C(F)(F)F)C(F)(F)F)C(F)(F)F)C(F)(F)F (stereo not drawn) [HFPO-TeA, perfluoro-(2,5,8-trimethyl-3,6,9-trioxadodecanoic) acid] | 2.6401 and 2.4357 and 2.5979 | 3.3942 and 3.4965 and 3.9620 | 2.6401 and 2.4357 and 2.5979 | 3.6957 and 3.6025 and 3.5122 | 0 | 3.0306 and 2.9008 and 2.9997 | 3.0932 and 2.2706 and 2.9515 | 4.2083 and 3.3638 and 2.7617 | 3.2078 and 2.9997 and 2.8429 | 4.0404 and 3.2267 and 2.8611 | 4.3810 and 4.0785 and 4.0446 | 0.001258 | 3.2431 and 3.8547 and 4.8392 | 4.3983 and 4.1513 and 4.1952 | 0 | 3.2431 and 3.8547 and 4.8392 | 3.9071 and 4.4271 and 4.0870 | 4.4318 and 4.5113 and 4.4280 | 4.5753 and 4.4697 and 3.8582 | 3.6875 and 3.5788 and 3.6553 | Ln Concentration (human hepatocytes; time 60 min): 3.0465 and 3.5032 and 3.8121; Ln Concentration (human hepatocytes; time 120 min): 4.2197 and 4.3067 and 4.1488; Ln Concentration (human hepatocytes; time 240 min): 3.9567 and 3.8156 and 4.0422; Linear Regression Best-Fit Slope (ln concentration vs time) (human hepatocytes): 0.001224; Clhep (hepatic clearance) [1]: 0 L/h; Css [1]: 12550 ng/mL; Css (steady-state concentration, plasma) [1]: 19 µM and 18.96 µM and 18.9581 µM; fraction unbound at 300 min [1]: 0.0105; Clint [1]: 0 µL/min |
